From patent US9346761B2, “Arginine methyltransferase inhibitors and uses thereof” (Epizyme, Inc., priority 2013, dated 2016)

Key:
[1] = target: T1, Full-length human PRMT6 (Homo sapiens, UniProt Q96LA8); assay: PRMT6 biochemical assay (3H-SAM Flashplate, peptide substrate)
T1 construct: Flag-PRMT6-His was eluted with 200 ug/ml FLAG peptide in the same buffer; made in house; host or cells: HEK 293F cells (BacMam virus, pFastBacMam)
How it was run: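 Flag-PRMT6-His from baculovirus-infected cells, preincubated with compound 30 min at room temperature, then SAM/3H-SAM and biotinylated H4 36-50 peptide added; 20 mM Bicine pH 7.6, TCEP, BSG, Tween 20. Quenched with cold SAM, captured on streptavidin Flashplates; % inhibition from SAH/DMSO controls, 3- or 4-parameter IC50 fit.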

[2] = target: T2, Full-length human PRMT8 (Homo sapiens, UniProt Q9NR22); assay: PRMT8 biochemical assay (3H-SAM Flashplate, peptide substrate)
T2 construct: Full-length human PRMT8 (NM_019854.4) isoform 1 transcript clone; made in house
How it was run: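 E. coli-expressed PRMT8, GST-cleaved, was preincubated with compound for 30 min at room temperature in 20 mM Bicine pH 7.6, 1 mM TCEP, 0.005% BSG, 0.002% Tween 20. ³H-SAM and biotinylated histone H4 31-45 peptide then started methylation.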

T1 sequence (Q96LA8 with tags, fused parts or gaps): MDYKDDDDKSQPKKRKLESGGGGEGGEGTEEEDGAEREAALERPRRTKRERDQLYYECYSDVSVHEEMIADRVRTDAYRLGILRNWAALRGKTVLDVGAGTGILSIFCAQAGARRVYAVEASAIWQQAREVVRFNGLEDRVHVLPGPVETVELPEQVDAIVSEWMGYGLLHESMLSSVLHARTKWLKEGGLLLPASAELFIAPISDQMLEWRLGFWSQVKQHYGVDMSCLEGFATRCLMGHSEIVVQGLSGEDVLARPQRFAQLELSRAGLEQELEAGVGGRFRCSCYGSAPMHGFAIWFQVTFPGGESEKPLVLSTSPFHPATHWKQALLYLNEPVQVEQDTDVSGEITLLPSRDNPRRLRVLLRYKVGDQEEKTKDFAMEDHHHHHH
T2 sequence (Q9NR22 whole entry, canonical isoform): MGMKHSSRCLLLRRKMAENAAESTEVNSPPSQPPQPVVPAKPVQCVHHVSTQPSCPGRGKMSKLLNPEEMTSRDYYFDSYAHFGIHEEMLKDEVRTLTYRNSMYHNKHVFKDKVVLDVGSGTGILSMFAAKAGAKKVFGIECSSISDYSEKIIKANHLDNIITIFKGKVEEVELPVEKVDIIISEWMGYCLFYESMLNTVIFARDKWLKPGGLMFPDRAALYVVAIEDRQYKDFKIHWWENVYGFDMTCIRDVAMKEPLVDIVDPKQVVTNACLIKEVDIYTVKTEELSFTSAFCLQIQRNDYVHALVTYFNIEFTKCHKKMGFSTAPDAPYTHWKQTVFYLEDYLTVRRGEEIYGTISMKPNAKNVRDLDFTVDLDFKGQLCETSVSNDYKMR

Compound | IC50 [1] [µM] | IC50 [2] [µM]
CN(CCN)Cc1cn[nH]c1-c1ccc(F)cc1 [Compound 1] | < 0.1 | –
CNCCN(C)Cc1c[nH]nc1-c1ccc(F)cc1 [Compound 2, N^1-((3-(4-fluorophenyl)-1H-pyrazol-4-yl)methyl)-N^1,N^2-dimethylethane-1,2-diamine] | < 0.1 | 0.101 to 1
CN(CCN)Cc1cn(C)nc1-c1ccc(F)cc1 [Compound 3] | < 0.1 | 0.101 to 1
CN(CCN)Cc1cnn(C)c1-c1ccc(F)cc1 [Compound 4] | < 0.1 | 1.01 to 3
CCN(CCNC)Cc1c[nH]nc1-c1ccc(F)cc1 [Compound 9] | – | 0.101 to 1
CNCCN(C)Cc1cnn(C)c1-c1ccc(F)cc1 [Compound 10] | – | 0.101 to 1
CNCCN(C)Cc1cn(CC2CCOCC2)nc1-c1ccc(F)cc1 [Compound 11] | – | > 10
CNCCN(C)Cc1cnn(CC2CCOCC2)c1-c1ccc(F)cc1 [Compound 12] | 0.101 to 1 | > 10
CNCCN(C)Cc1c[nH]nc1-c1cccc(N)c1 [Compound 32] | < 0.1 | 1.01 to 3
CNCCN(C)Cc1c[nH]nc1-c1ccc(CC#N)cc1 [Compound 34] | < 0.1 | 0.101 to 1
CNCCN(C)Cc1c[nH]nc1-c1ccccc1O [Compound 35] | 0.101 to 1 | > 10
CNCCN(C)Cc1c[nH]nc1-c1ccccc1Oc1ccccc1 [Compound 36] | 1.01 to 3 | > 10
CNCCN(C)Cc1c[nH]nc1-c1cccc(OC(F)(F)F)c1 [Compound 39] | < 0.1 | 0.101 to 1
CNCCN(C)Cc1c[nH]nc1-c1ccccc1NS(C)(=O)=O [Compound 41] | 3.01 to 10 | > 10
CNCCN(C)Cc1c[nH]nc1-c1cccc(NC(C)=O)c1 [Compound 42] | < 0.1 | 1.01 to 3
CNCCN(C)Cc1c[nH]nc1-c1cccc(C(C)=O)c1 [Compound 44] | < 0.1 | 0.101 to 1
CNCCN(C)Cc1c[nH]nc1-c1ccc(C(=O)c2ccccc2)cc1 [Compound 45] | < 0.1 | 0.101 to 1

Compound | IC50 [1] [µM] | IC50 [2] [µM]
CNCCN(C)Cc1c[nH]nc1-c1ccccc1-c1ccccc1 [Compound 46] | 3.01 to 10 | > 10
CNCCN(C)Cc1c[nH]nc1-c1ccc(-c2ccccc2)cc1 [Compound 47] | < 0.1 | < 0.1
CNCCN(C)Cc1c[nH]nc1-c1ccccc1F [Compound 48] | < 0.1 | 1.01 to 3
CNCCN(C)Cc1c[nH]nc1-c1ccc(F)cc1F [Compound 49] | < 0.1 | 0.101 to 1
CNCCN(C)Cc1c[nH]nc1-c1cc(F)ccc1F [Compound 50] | < 0.1 | 1.01 to 3
CNCCN(C)Cc1c[nH]nc1-c1ccc(F)c(F)c1 [Compound 51] | < 0.1 | 0.101 to 1
CNCCN(C)Cc1c[nH]nc1-c1ccc(OC)c(F)c1 [Compound 52] | < 0.1 | 0.101 to 1
CNCCN(C)Cc1c[nH]nc1-c1cc(Cl)ccc1OC [Compound 53] | 0.101 to 1 | > 10
CNCCN(C)Cc1c[nH]nc1-c1cccc(OC)c1OC [Compound 54] | 0.101 to 1 | 3.01 to 10
CNCCN(C)Cc1c[nH]nc1-c1ccc(OC)cc1OC [Compound 55] | < 0.1 | 3.01 to 10
CNCCN(C)Cc1c[nH]nc1-c1c(OC)cccc1OC [Compound 56] | 1.01 to 3 | > 10
CNCCN(C)Cc1c[nH]nc1-c1cccc2ccccc12 [Compound 57] | < 0.1 | 0.101 to 1
CNCCN(C)Cc1c[nH]nc1-c1ccc2ccccc2c1 [Compound 58] | < 0.1 | 0.101 to 1
CNCCN(C)Cc1cn(CCC(O)CO)nc1-c1ccc(F)cc1 (stereo not shown) [Compound 59] | 0.101 to 1 | 3.01 to 10
CCNCCN(C)Cc1c[nH]nc1-c1ccc(F)cc1 [Compound 60] | < 0.1 | 1.01 to 3
COCCn1cc(CN(C)CCN(C)C)c(-c2ccc(F)cc2)n1 [Compound 61] | – | > 10
